Measured values as given in patent US8568806B2, “Stable and bioavailable compositions of isomers of lycopene for skin and hair” (Indena, S.p.A., priority 2006, dated 2013).

Assay: Stability of pure lycopene isomers in n-hexane during storage at room temperature
Format: physicochemical
Conditions: storage in n-hexane at room temperature in the absence of light
Method: Pure 5-Z, 9-Z, 13-Z and all-E lycopene were isolated from isomerised tomato oleoresin (submitted to 1 hour heating), by collecting the fractions containing the corresponding peaks after HPLC separation (see below the experimental conditions). Peaks were collected during two consecutive HPLC runs and the corresponding fractions were pooled.
Lycopene isomer profiles were determined by normal phase HPLC according to the method described by Schierle et al. (Schierle, J., Bretzel, W., Buhler, I., Faccin, N., Hess, D., Steiner, K., Schuep, W. (1997). Food. Chem. 59: 459). Samples of isomerized oleoresins were dissolved in n-hexane containing 50 ppm BHT and spun at maximum speed in an Eppendorf Lab centrifuge. The resulting supernatants were immediately analyzed by HPLC. The HPLC system used was a 1100 series Hewlett-Packard model equipped with an ultraviolet-visible photodiode array detector. Data were simultaneously acquired at 470 nm, 464 nm, 346 nm and 294 nm. […]
Amounts of lycopene isomers were calculated based on surface areas of the HPLC peaks using the same extinction coefficient as the all-E lycopene. […]
Stability of lycopene isomers was investigated both in n-hexane and in a tomato oleoresin isomerized by 4 hour heating in ethyl acetate. […] Total lycopene concentration and lycopene isomer profiles were measured at various time intervals during the storage. […]

relative stability of the isomer: less stable isomer
Structure (SMILES): CC(C)=CCC/C(C)=C/C=C/C(C)=C/C=C/C(C)=C\C=C\C=C(C)\C=C\C=C(C)\C=C\C=C(/C)CCC=C(C)C [13-Z lycopene]
